Experiments:
Glutamate NMDA receptor = test: Inhibition of [3H]dizocilpine binding to N-methyl-D-aspartate (NMDA) receptor complex in rat brain membranes; type: cell membranes
Rattus norvegicus [1] = species on record: Rattus norvegicus; test: Protective potency against glutamate-induced neurotoxicity in cultures of embryonic rat brain at a compound concentration of 100 uM; type: functional
Rattus norvegicus [2] = species on record: Rattus norvegicus; test: Protective potency against glutamate-induced neurotoxicity in cultures of embryonic rat brain at a compound concentration of 10 uM+Glutamate (100 uM); type: functional
Rattus norvegicus [3] = species on record: Rattus norvegicus; test: Protective potency against glutamate-induced neurotoxicity in cultures of embryonic rat brain at a concentration of 100 uM+Glutamate (100 uM); type: functional
Rattus norvegicus [4] = species on record: Rattus norvegicus; test: Inhibitory activity (1.0 uM) against NMDA (30 uM) and glycine (10 uM) induced increase in [Ca2+]i in cultured forebrain neurons from fetal rat; type: functional; set-up: scale not given: the % may be the effect or the level left
Rattus norvegicus [5] = species on record: Rattus norvegicus; test: Inhibitory activity (10.0 uM) against NMDA (30 uM) and glycine (10 uM) induced increase in [Ca2+]i in cultured forebrain neurons from fetal rat; type: functional; set-up: scale not given: the % may be the effect or the level left
Rattus norvegicus [6] = species on record: Rattus norvegicus; test: Inhibitory activity (0.1 uM) against NMDA (30 uM) and glycine (10 uM) induced increase in [Ca2+]i in cultured forebrain neurons from fetal rat; type: functional; set-up: scale not given: the % may be the effect or the level left
Rattus norvegicus [7] = species on record: Rattus norvegicus; test: Protective potency against glutamate-induced neurotoxicity in cultures of embryonic rat brain at a compound concentration of 10 uM; type: functional
Rattus norvegicus [8] = species on record: Rattus norvegicus; test: Protective potency against glutamate-induced neurotoxicity in cultures of embryonic rat brain at a concentration of 100 uM (p < 0.05); type: functional

| IC50 (Glutamate NMDA receptor) | Compound | other results |
| --- | --- | --- |
| 45.8 µM | N#Cc1ccc(N2CCCN(c3ccc(C#N)cc3)CC2)cc1 |  |
| 16.5 µM | c1cc(C2=NCCN2)ccc1OC[C@@H]1C[C@H]1COc1ccc(C2=NCCN2)cc1 |  |
| 11.7 µM | N=C(N)c1ccc(OC[C@@H]2C[C@H]2COc2ccc(C(=N)N)cc2)cc1 |  |
| 1.19 µM | N=C(N)c1ccc(N2CCCN(c3ccc(C(=N)N)cc3)CC2)cc1 | Activity (Rattus norvegicus [1]): 87%; Activity (Rattus norvegicus [2]): 99%; Activity (Rattus norvegicus [3]): 98%; Activity (Rattus norvegicus [4]): 67.04%; Activity (Rattus norvegicus [5]): 37.58%; Activity (Rattus norvegicus [6]): 111.26%; Activity (Rattus norvegicus [7]): 100% |
| 5.32 µM | N=C(N)c1ccc(N2CCN(c3ccc(C(=N)N)cc3)CC2)cc1 |  |
| > 200 µM | N=C(N)c1ccc(NC(=O)c2cccc(C(=O)Nc3ccc(C(=N)N)cc3)c2)cc1 |  |
| 66 µM | N=C(N)c1ccc(NC(=O)c2cccc(C(=O)Nc3ccc(C(=N)N)cc3)n2)cc1 |  |
| 2.59 µM | N=C(N)c1ccc(OCCCCCOc2ccc(C(=N)N)cc2)cc1 [PENTAMIDINE] |  |

The remaining lines, values behind:

| Compound | IC50 (Glutamate NMDA receptor) | other results |
| --- | --- | --- |
| C(=C1/CCCN(c2ccc(C3=NCCN3)cc2)C1)/c1ccc(C2=NCCN2)cc1 | 8.35 µM |  |
| C(=C1CCN(Cc2ccc(C3=NCCN3)cc2)CC1)c1ccc(C2=NCCN2)cc1 | 35.6 µM |  |
| c1cc(N2CCN(c3ccc(C4=NCCN4)cc3)CC2)ccc1C1=NCCN1 | 18.2 µM |  |
| c1cc(N2CCCN(c3ccc(C4=NCCN4)cc3)CC2)ccc1C1=NCCN1 | 4.99 µM |  |
| c1cc(C2=NCCN2)ccc1CC1CCN(c2ccc(C3=NCCN3)cc2)CC1 | 6.29 µM |  |
| c1cc(C2=NCCN2)ccc1CC1CCCN(c2ccc(C3=NCCN3)cc2)C1 (configuration not stated) | 7.84 µM |  |
| N[C@@H](CCC(=O)O)C(=O)O [GLUTAMIC ACID] |  | Activity (Rattus norvegicus [8]): 60% |

Source: ChEMBL document CHEMBL1132046, “Novel bisbenzamidines and bisbenzimidazolines as noncompetitive NMDA receptor antagonists” (Bioorg Med Chem Lett, 1999)
